Data: publication PMC13095408, “DBeQ derivative targets vacuolar protein sorting 4 functions in cancer cells and suppresses tumor growth in mice” (The Journal of Pharmacology and Experimental Therapeutics, 2025)
In brackets after ≈: the same amount, converted by molar mass.

Columns and labels:
[1] = test system: GFP-CHMP4B- and mCherry-LGALS3-expressing U2OS cells; assay: mCherry-LGALS3 accumulation, endolysosomal membrane integrity (HCM); assay type: cell-based; details: 2 μM 4-107, starved, 2 hours
Protocol: Live-cell fluorescence imaging and analysis were performed using the CellInsight CX7 LZR high-content screening platform with Onstage Incubator (Thermo Scientific; 37 °C, 5% CO2, 20% O2, 60% humidity). SM was acclimatized at 37 °C and 5% CO2 for at least 30 minutes prior to all experiments for pH equilibration. For cell-based VPS4i screen, U2OS cells stably expressing N-terminal GFP-tagged charged multivesicular body protein 4B (GFP-CHMP4B) were cultured in black clear-bottom 96-well plates (Corning; 3603) at a density of 6000 cells/well. Cells were stained with Hoechst 33342 (1:1000) for 15 minutes at 37 °C, rinsed with 1× Dulbecco's phosphate-buffered saline (DPBS), and treated with SM containing 0.1% DMSO or 1 μM test compounds. Plates were then scanned using the 20× objective for 1 hour with ≥100 cells/well across 6 fields/well. Fluorescence intensity of GFP-CHMP4B foci per cell for each compound was normalized to that of 4-107. For all other assays, the cells were cultured overnight in black glass-bottom 96-well plates (Cellvis; P96-1.5H-N) then stained, rinsed, and treated with SM containing the indicated compounds (0.1% DMSO or 0.1% DMSO/0.1% ethanol [vehicle] final). Plates were scanned using the 20× NA .70 objective at the indicated intervals with ≥ 300 cells/well across 3 fields/well. […]

[2] = Caco-2 permeability; assay type: in vitro ADME; details: human, 10 μM of compound
Protocol: All in vitro absorption, distribution, metabolism, and excretion (ADME) studies were conducted by BioDuro-Sundia. […] Caco-2 permeability, human liver microsomal stability, and human plasma protein binding assays as well as liquid chromatography-mass spectrometry/mass spectrometry analyses were performed following standard protocols previously described in detail ([Kazakova et al, 2023]).

[3] = Thermodynamic solubility; assay type: physicochemical; details: FaSSIF-V2 buffer, thermodynamic from solid; In FaSSIF-V2, pH 6.5
[4] = test system: U2OS cells; assay: Immunoblot analysis of VPS4- and VCP-mediated pathways (autophagy, ER stress, ERAD); assay type: cell-based
Protocol: Whole-cell lysates were prepared in radio-immunoprecipitation buffer (25 mM Tris-HCl, pH 8.0, 150 mM NaCl, 1 mM EDTA, 1% v/v IGEPAL CA-630, 0.5% w/v sodium deoxycholate, and 1% v/v SDS) containing protease (1:250) and phosphatase inhibitor cocktails (1:100) then resolved via SDS-PAGE and probed with the indicated antibodies. Signals were acquired with the Odyssey CLx (LI-COR) for fluorescence or Odyssey XF (LI-COR) for chemiluminescence detection and visualized in Image Studio version 6 (LI-COR).
VPS4 is essential for autophagy and loss of VPS4 function inhibits autophagic flux ([Takahashi et al, 2018]; [Zhen et al, 2019]). Meanwhile, VCP is required for endoplasmic reticulum-associated degradation (ERAD; [Rabinovich et al, 2002]) where VCP inhibition results in the accumulation of ubiquitinated proteins and induction of ER stress ([Weihl et al, 2006]; [Bastola et al, 2016]).

[5] = target: T1, recombinant human VCP; assay: VCP ATPase activity, EnzChek Phosphate assay; assay type: biochemical; details: 0.5 μM enzyme
T1 construct: His (N); host or cells: Escherichia coli BL21(DE3)
Protocol: (§1) VPS4B and VCP ATPase activities were measured using the EnzChek Phosphate assay for the quantification of released phosphate. Assay buffers were based on literature precedents ([Cupido et al, 2019], [2021]) as follows: VPS4B buffer (20 mM HEPES-KOH, pH 7.4, 25 mM KOAc, 2 mM MgCl2, 5 mM (NH4)2SO4, 0.5 mM CaCl2, 2.5 mM DTT, 0.1 mg/mL BSA, 0.005% v/v Triton X-100), VCP buffer (20 mM HEPES-NaOH, pH 7.4, 20 mM NaCl, 10 mM MgCl2, 5 mM (NH4)2SO4, 0.5 mM CaCl2, 2.5 mM DTT, 0.1 mg/mL BSA, 0.005% v/v Triton X-100). In black clear-bottom 384-well plates, 22.5 μL of 5% DMSO or 40× test compounds diluted in the respective assay buffer was added to each well. ATPases were diluted to 1 μM in the respective buffers containing 2× EnzChek Phosphate assay coupling reagents of 400 μM MESG and 2 U of PNP, then 25 μL was added to each well. Plates were mixed at 1000 rpm for 30 minutes at RT while being protected from light. The reaction was initiated by adding 2.5 μL of 20 mM MgATP or water followed by mixing at 1200 rpm for 30 seconds at RT. Plates were measured at 360 nm using a CLARIOstar plate reader (BMG LABTECH) for 20 minutes at 37 °C. ATPase activity was calculated as the amount of phosphate released over a 5-minute interval under linear initial velocity conditions. The remaining ATPase activity was calculated by normalizing compound-treated activity values to the DMSO control. IC50 was calculated by fitting normalized values to a sigmoidal dose-response curve with Hill slope = −1 using Graph Pad Prism 10.0.
(§2) To identify VPS4i, we developed enzyme- and cell-based VPS4 functional assays to serve as VPS4i-screening platforms. For the enzyme-based assay, we used the colorimetric EnzChek Phosphate assay that detects free phosphate with the advantage of continuous measurement of ATP hydrolysis over time. […] Due to the high sequence and structural similarity of AAA-ATPases, we also established a VCP ATPase assay to evaluate hit selectivity. […] For the cell-based assay, our approach was based on how VPS4 inhibition causes the accumulation of ESCRT-III ([Babst et al, 1998]; [Katoh et al, 2003]). We used an N-terminal GFP-tagged CHMP4B reporter system because it is the most abundant ESCRT-III subunit ([Katoh et al, 2004]; [Teis et al, 2008]). Our aim was to test compounds under short-term serum and amino acid starvation to stimulate ESCRT activity for easier detection of inhibitors ([Takahashi et al, 2018], [2019]). […] Overall, we established 2 systems for VPS4i screening, a VPS4B ATPase activity assay and a GFP-CHMP4B accumulation cell-based assay.

[6] = target: T2, recombinant human VCP (Rattus norvegicus, UniProt P46462); assay: VCP ATPase activity, EnzChek Phosphate assay; assay type: biochemical
T2 construct: His (N); host or cells: Escherichia coli BL21(DE3)
Protocol: as §1, §2

[7] = 5 μM DBeQ, 0.6 μM CB-5083, 1 μM 4-107, complete media

T2 sequence (P46462 2-806 limits assumed): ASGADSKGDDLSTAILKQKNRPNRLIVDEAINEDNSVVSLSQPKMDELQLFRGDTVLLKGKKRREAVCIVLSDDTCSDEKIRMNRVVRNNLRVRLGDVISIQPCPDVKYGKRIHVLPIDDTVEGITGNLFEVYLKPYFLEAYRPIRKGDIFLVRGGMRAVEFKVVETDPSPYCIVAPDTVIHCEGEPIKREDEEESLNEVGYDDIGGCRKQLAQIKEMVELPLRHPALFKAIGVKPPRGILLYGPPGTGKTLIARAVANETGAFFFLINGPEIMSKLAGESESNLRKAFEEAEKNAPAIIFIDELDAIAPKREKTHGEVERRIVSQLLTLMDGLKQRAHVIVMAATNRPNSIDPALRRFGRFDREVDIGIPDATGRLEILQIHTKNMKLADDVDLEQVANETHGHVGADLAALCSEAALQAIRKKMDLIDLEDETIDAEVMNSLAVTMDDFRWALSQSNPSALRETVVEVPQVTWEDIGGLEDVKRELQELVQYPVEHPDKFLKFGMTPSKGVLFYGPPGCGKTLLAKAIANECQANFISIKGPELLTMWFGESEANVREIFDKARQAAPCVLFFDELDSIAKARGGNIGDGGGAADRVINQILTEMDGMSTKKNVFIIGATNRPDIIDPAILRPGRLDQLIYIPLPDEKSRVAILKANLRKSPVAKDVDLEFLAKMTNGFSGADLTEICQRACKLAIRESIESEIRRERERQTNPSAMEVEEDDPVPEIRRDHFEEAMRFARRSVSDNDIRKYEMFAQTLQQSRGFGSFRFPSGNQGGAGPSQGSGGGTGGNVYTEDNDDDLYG
T1 sequence (P46462 2-806 limits assumed): as above

COc1cccc2c(NCc3ccccc3)nc(NCc3ccccc3)nc12 [Compound 4-107, N^2,N^4-dibenzyl-8-methoxyquinazoline-2,4-diamine]
mCherry-LGALS3 signals (endolysosomal membrane integrity) [1]: increase in mCherry-LGALS3 signals | Papp A→B at 10 μM [2]: 0.3 nm/s | Papp B→A at 10 μM [2]: 3 nm/s | efflux ratio at 10 μM [2]: 10.3 | solubility thermodynamic at 16 h [3]: 17 µM (≈ 6.3 µg/mL) | accumulation of K48-linked polyubiquitinated proteins ([4]; 0.6 μM CB-5083, 1 μM 4-107, complete media): did not induce ER stress or the accumulation of polyubiquitinated proteins | VCP pathway (ubiquitinated proteins, ATF4, SQSTM1) ([4]; 5 μM 4-107, 4 hours, complete media): VCP pathway perturbation | ER stress (HSPA5, ATF4) [4, 7]: did not induce ER stress | autophagy (SQSTM1, LC3-II) [4, 7]: inhibited autophagy over time | IC50 [5]: 8.6 ± 3.9 µM | VCP ATPase (% DMSO) ([6]; remaining ATPase activity, screened at 5 μM, mean ± SD, Table 2): 68.48 ± 2.85 % DMSO | VCP ATPase (% DMSO) ([6]; screened at 5 µM, mean ± S.D., Supplemental Table 2): 68.48 ± 2.02 % DMSO
